Source: ChEMBL document CHEMBL1201861, “Genomics of Drug Sensitity in Cancer screening data, Wellcome Trust Sanger Institute”

What was measured:
Test in all cases: cells
Ramos-2G6-4C10 = format: functional, cell-based; conditions: Homo sapiens;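 note: growth inhibition of the cell line, measured by a cell viability read-out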
Description: SANGER: Inhibition of human Ramos-2G6-4C10 cell growth in a cell viability assay.

SHP77 = format: functional, cell-based, Homo sapiens, SHP-77; conditions: Homo sapiens, SHP77;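 note: growth inhibition of human SHP-77 cells measured by a cell viability assay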
Description: SANGER: Inhibition of human SHP-77 cell growth in a cell viability assay.

ETK-1 = format: functional, cell-based, Homo sapiens; conditions: Homo sapiens, ETK-1;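 note: growth inhibition of human ETK-1 cells, read out with a cell viability assay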
Description: SANGER: Inhibition of human ETK-1 cell growth in a cell viability assay.

OCI-AML2 = format: functional, cell-based; conditions: Homo sapiens;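 note: growth inhibition of OCI-AML2 cells, read out with a cell viability assay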
Description: SANGER: Inhibition of human OCI-AML2 cell growth in a cell viability assay.

LB771-HNC = format: functional, cell-based, Homo sapiens; conditions: Homo sapiens, LB771-HNC;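 note: growth inhibition of LB771-HNC human cells, read out with a cell viability assay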
HCC1187 = format: functional, cell-based, Homo sapiens; conditions: Homo sapiens, HCC1187;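 note: growth inhibition of HCC1187 cells, read out with a cell viability assay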
Description: SANGER: Inhibition of human HCC1187 cell growth in a cell viability assay.

GB-1 = format: functional, cell-based, Homo sapiens; conditions: Homo sapiens, GB-1;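 note: growth of GB-1 cells judged by a viability assay, IC50 marks the concentration inhibiting growth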
Description: SANGER: Inhibition of human GB-1 cell growth in a cell viability assay.

Calu-6 = format: functional, cell-based, Homo sapiens; conditions: Homo sapiens, Calu-6;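 note: growth of human Calu-6 cells, read out by a cell viability assay, IC50 marking inhibition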
Description: SANGER: Inhibition of human Calu-6 cell growth in a cell viability assay.

SNU-5 = format: functional, cell-based; conditions: Homo sapiens;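 note: cell viability readout used to measure growth inhibition in human NCI-SNU-5 cells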
Description: SANGER: Inhibition of human NCI-SNU-5 cell growth in a cell viability assay.

KGN = format: functional, cell-based, Homo sapiens; conditions: Homo sapiens, KGN;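 note: growth inhibition of KGN cells, read out with a cell viability assay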
Description: SANGER: Inhibition of human KGN cell growth in a cell viability assay.

TGBC1TKB = format: functional, cell-based, Homo sapiens; conditions: Homo sapiens, TGBC1TKB;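 note: growth inhibition of TGBC1TKB cells, read out by a cell viability assay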
Description: SANGER: Inhibition of human TGBC1TKB cell growth in a cell viability assay.

ACN = format: functional, cell-based, Homo sapiens; conditions: Homo sapiens, ACN;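 note: growth inhibition of the human ACN cell line, read out via cell viability testing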
Description: SANGER: Inhibition of human ACN cell growth in a cell viability assay.

NB14 = format: functional, cell-based; conditions: Homo sapiens;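 note: growth inhibition of NB14 cells measured with a cell viability assay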
Description: SANGER: Inhibition of human NB14 cell growth in a cell viability assay.

KNS-81-FD = format: functional, cell-based, Homo sapiens; conditions: Homo sapiens, KNS-81-FD;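 note: growth inhibition of KNS-81-FD cells, read out with a cell viability assay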
Description: SANGER: Inhibition of human KNS-81-FD cell growth in a cell viability assay.

EW-16 = format: functional, cell-based, Homo sapiens; conditions: Homo sapiens, EW-16;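 note: growth inhibition of human EW-16 cells, read out as cell viability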
Description: SANGER: Inhibition of human EW-16 cell growth in a cell viability assay.

no-10 = format: functional, cell-based, Homo sapiens; conditions: Homo sapiens;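 note: growth inhibition of no-10 cells, read out with a cell viability assay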
Description: SANGER: Inhibition of human no-10 cell growth in a cell viability assay.

NCI-H1581 = format: functional, cell-based, Homo sapiens; conditions: Homo sapiens, NCI-H1581;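 note: cell growth inhibition read out by a viability assay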
Description: SANGER: Inhibition of human NCI-H1581 cell growth in a cell viability assay.

BT-474 = format: functional, cell-based, Homo sapiens; conditions: Homo sapiens, BT-474
Description: SANGER: Inhibition of human BT-474 cell growth in a cell viability assay.

NCI-H226 = format: functional, cell-based, Homo sapiens; conditions: Homo sapiens, NCI-H226;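 note: cell viability read-out used to gauge growth inhibition of the cells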
Description: SANGER: Inhibition of human NCI-H226 cell growth in a cell viability assay.

D-336MG = format: functional, cell-based, Homo sapiens; conditions: Homo sapiens, D-336MG
Description: SANGER: Inhibition of human D-336MG cell growth in a cell viability assay.

P30-OHK = format: functional, cell-based; conditions: Homo sapiens;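 note: growth inhibition of the P30-OHK cell line, read out with a cell viability assay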
Description: SANGER: Inhibition of human P30-OHK cell growth in a cell viability assay.

NCI-H1838 = format: functional, cell-based, Homo sapiens; conditions: Homo sapiens, NCI-H1838;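 note: growth inhibition of NCI-H1838 cells, determined with a cell viability readout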
Description: SANGER: Inhibition of human NCI-H1838 cell growth in a cell viability assay.

NB12 = format: functional, cell-based, Homo sapiens; conditions: Homo sapiens, NB12;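 note: growth inhibition of human NB12 cells, read out by a cell viability assay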
Description: SANGER: Inhibition of human NB12 cell growth in a cell viability assay.

RXF 393 = format: functional, cell-based; conditions: Homo sapiens;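 note: growth inhibition of human RXF 393 cells, read out with a cell viability assay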
DB = format: functional, cell-based; conditions: Homo sapiens
Description: SANGER: Inhibition of human DB cell growth in a cell viability assay.

SJSA-1 = format: functional, cell-based, Homo sapiens; conditions: Homo sapiens, SJSA-1;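 note: growth inhibition of human SJSA-1 cells, read out through a cell viability measurement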
Description: SANGER: Inhibition of human SJSA-1 cell growth in a cell viability assay.

SNB-75 = format: functional, cell-based, Homo sapiens; conditions: Homo sapiens, SNB-75;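 note: cell viability assay measuring growth inhibition of human SNB-75 cells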
Description: SANGER: Inhibition of human SNB75 cell growth in a cell viability assay.

MC116 = format: functional, cell-based; conditions: Homo sapiens;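 note: growth inhibition of MC116 cells, read out with a cell viability assay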
Description: SANGER: Inhibition of human MC116 cell growth in a cell viability assay.

NCI-H1299 = format: functional, cell-based, Homo sapiens; conditions: Homo sapiens, NCI-H1299;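 note: growth inhibition of human NCI-H1299 cells, read out by a cell viability assay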
Description: SANGER: Inhibition of human NCI-H1299 cell growth in a cell viability assay.

`CC1=C2C[C@H]3[C@@H](CC=C4C[C@@H](O)CC[C@@]43C)[C@@H]2CC[C@]12O[C@@H]1C[C@H](C)CN[C@H]1[C@H]2C` [CYCLOPAMINE] was tested, and the IC50 (Ramos-2G6-4C10) was over 16000 nM, the IC50 (SHP77) was over 16000 nM and the IC50 (ETK-1) was over 16000 nM. The IC50 (OCI-AML2) was over 16000 nM, the IC50 (LB771-HNC) was over 16000 nM and the IC50 (HCC1187) was over 16000 nM. For the same molecule, the IC50 (GB-1) was over 16000 nM, the IC50 (Calu-6) was over 16000 nM and the IC50 (SNU-5) was over 16000 nM. For the same molecule, the IC50 (KGN) was over 16000 nM, the IC50 (TGBC1TKB) was over 16000 nM and the IC50 (ACN) was over 16000 nM. For the same molecule, the IC50 (NB14) was over 16000 nM, the IC50 (KNS-81-FD) was over 16000 nM and the IC50 (EW-16) was over 16000 nM. The IC50 (no-10) was 9900 nM, the IC50 (NCI-H1581) was over 16000 nM and the IC50 (BT-474) was over 16000 nM. For the same molecule, the IC50 (NCI-H226) was over 16000 nM, the IC50 (D-336MG) was over 16000 nM and the IC50 (P30-OHK) was over 16000 nM. It also gave an IC50 (NCI-H1838) of over 16000 nM, an IC50 (NB12) of over 16000 nM and an IC50 (RXF 393) of over 16000 nM. The IC50 (DB) was over 16000 nM, the IC50 (SJSA-1) was over 16000 nM and the IC50 (SNB-75) was over 16000 nM. It also gave an IC50 (MC116) of over 16000 nM.

With `Cc1cc(Nc2cc(N3CCN(C)CC3)nc(Sc3ccc(NC(=O)C4CC4)cc3)n2)n[nH]1` [TOZASERTIB] the IC50 (Ramos-2G6-4C10) was over 2000 nM, the IC50 (SHP77) was over 2000 nM and the IC50 (ETK-1) was 1140 nM. The IC50 (OCI-AML2) was 644 nM, the IC50 (LB771-HNC) was over 2000 nM and the IC50 (HCC1187) was 1010 nM. For the same molecule, the IC50 (GB-1) was over 2000 nM, the IC50 (Calu-6) was over 2000 nM and the IC50 (SNU-5) was over 2000 nM. It also gave an IC50 (KGN) of 900 nM, an IC50 (TGBC1TKB) of over 2000 nM and an IC50 (ACN) of over 2000 nM. The IC50 (NB14) was over 2000 nM, the IC50 (KNS-81-FD) was over 2000 nM and the IC50 (EW-16) was 238 nM. For the same molecule, the IC50 (no-10) was over 2000 nM, the IC50 (NCI-H1581) was over 2000 nM and the IC50 (BT-474) was over 2000 nM. The IC50 (NCI-H226) was over 2000 nM, the IC50 (D-336MG) was over 2000 nM and the IC50 (P30-OHK) was over 2000 nM. The IC50 (NCI-H1838) was over 2000 nM, the IC50 (RXF 393) was over 2000 nM and the IC50 (DB) was over 2000 nM. The IC50 (SJSA-1) was over 2000 nM, the IC50 (SNB-75) was over 2000 nM and the IC50 (MC116) was 850 nM.

In the case of `CO[C@H]1C[C@@H]2CC[C@@H](C)[C@@](O)(O2)C(=O)C(=O)N2CCCC[C@H]2C(=O)O[C@H]([C@H](C)C[C@@H]2CC[C@@H](O)[C@H](OC)C2)CC(=O)[C@H](C)/C=C(\C)[C@@H](O)[C@@H](OC)C(=O)[C@H](C)C[C@H](C)/C=C/C=C/C=C/1C` [SIROLIMUS], the IC50 (NCI-H1299) is reported as over 100 nM, the IC50 (Ramos-2G6-4C10) is reported as 1.46 nM and the IC50 (SHP77) is reported as over 100 nM. The IC50 (ETK-1) was 2.82 nM, the IC50 (OCI-AML2) was over 100 nM and the IC50 (LB771-HNC) was over 100 nM. The IC50 (HCC1187) was over 100 nM, the IC50 (GB-1) was over 100 nM and the IC50 (Calu-6) was over 100 nM. For the same molecule, the IC50 (SNU-5) was over 100 nM, the IC50 (KGN) was 96.3 nM and the IC50 (TGBC1TKB) was 2.69 nM. For the same molecule, the IC50 (ACN) was over 100 nM, the IC50 (NB14) was over 100 nM and the IC50 (KNS-81-FD) was over 100 nM. The IC50 (EW-16) was 26.9 nM, the IC50 (no-10) was 7.29 nM and the IC50 (NCI-H1581) was over 100 nM. It also gave an IC50 (BT-474) of over 100 nM, an IC50 (NCI-H226) of over 100 nM and an IC50 (D-336MG) of over 100 nM. It also gave an IC50 (P30-OHK) of over 100 nM, an IC50 (NCI-H1838) of over 100 nM and an IC50 (RXF 393) of over 100 nM. For the same molecule, the IC50 (DB) was over 100 nM, the IC50 (SJSA-1) was over 100 nM and the IC50 (SNB-75) was over 100 nM. The IC50 (MC116) was 0.985 nM.

Work on `O=C(/C=C/c1ccccc1)NC(NC(=S)Nc1cccc2cccnc12)C(Cl)(Cl)Cl` (stereo unspecified) [SALUBRINAL] yielded an IC50 (Ramos-2G6-4C10) of 9900 nM, an IC50 (SHP77) of over 16000 nM and an IC50 (ETK-1) of over 16000 nM. For the same molecule, the IC50 (OCI-AML2) was 15900 nM, the IC50 (LB771-HNC) was over 16000 nM and the IC50 (HCC1187) was over 16000 nM. It also gave an IC50 (GB-1) of over 16000 nM, an IC50 (Calu-6) of over 16000 nM and an IC50 (SNU-5) of over 16000 nM. It also gave an IC50 (KGN) of over 16000 nM, an IC50 (TGBC1TKB) of over 16000 nM and an IC50 (ACN) of over 16000 nM. For the same molecule, the IC50 (NB14) was over 16000 nM, the IC50 (KNS-81-FD) was over 16000 nM and the IC50 (EW-16) was over 16000 nM. It also gave an IC50 (no-10) of over 16000 nM, an IC50 (NCI-H1581) of over 16000 nM and an IC50 (BT-474) of over 16000 nM. The IC50 (NCI-H226) was over 16000 nM, the IC50 (D-336MG) was 15100 nM and the IC50 (P30-OHK) was over 16000 nM. It also gave an IC50 (NCI-H1838) of over 16000 nM, an IC50 (NB12) of over 16000 nM and an IC50 (RXF 393) of over 16000 nM. The IC50 (DB) was over 16000 nM, the IC50 (SJSA-1) was over 16000 nM and the IC50 (SNB-75) was over 16000 nM. For the same molecule, the IC50 (MC116) was 11200 nM.

`CS(=O)(=O)CCNCc1ccc(-c2ccc3ncnc(Nc4ccc(OCc5cccc(F)c5)c(Cl)c4)c3c2)o1` [LAPATINIB] was tested, and the IC50 (Ramos-2G6-4C10) was over 2000 nM, the IC50 (SHP77) was over 2000 nM and the IC50 (ETK-1) was over 2000 nM. The IC50 (OCI-AML2) was over 2000 nM, the IC50 (LB771-HNC) was over 2000 nM and the IC50 (HCC1187) was over 2000 nM. It also gave an IC50 (GB-1) of over 2000 nM, an IC50 (Calu-6) of over 2000 nM and an IC50 (SNU-5) of over 2000 nM. It also gave an IC50 (KGN) of over 2000 nM, an IC50 (TGBC1TKB) of over 2000 nM and an IC50 (ACN) of over 2000 nM. It also gave an IC50 (NB14) of over 2000 nM, an IC50 (KNS-81-FD) of over 2000 nM and an IC50 (EW-16) of over 2000 nM. For the same molecule, the IC50 (no-10) was over 2000 nM, the IC50 (NCI-H1581) was over 2000 nM and the IC50 (BT-474) was 213 nM. For the same molecule, the IC50 (NCI-H226) was over 2000 nM, the IC50 (D-336MG) was over 2000 nM and the IC50 (P30-OHK) was over 2000 nM. For the same molecule, the IC50 (NCI-H1838) was over 2000 nM, the IC50 (NB12) was over 2000 nM and the IC50 (RXF 393) was over 2000 nM. It also gave an IC50 (DB) of over 2000 nM, an IC50 (SJSA-1) of over 2000 nM and an IC50 (SNB-75) of over 2000 nM. For the same molecule, the IC50 (MC116) was over 2000 nM.

`CCC(=O)N1CCN(c2ccc(-n3c(=O)ccc4cnc5ccc(-c6cnc7ccccc7c6)cc5c43)cc2C(F)(F)F)CC1` [TORIN1] was tested, and the IC50 (Ramos-2G6-4C10) was 27.5 nM, the IC50 (SHP77) was over 1200 nM and the IC50 (ETK-1) was under 4.69 nM. It also gave an IC50 (OCI-AML2) of 28.7 nM, an IC50 (LB771-HNC) of 75.5 nM and an IC50 (HCC1187) of 468 nM. It also gave an IC50 (GB-1) of 15.5 nM, an IC50 (Calu-6) of 165 nM and an IC50 (SNU-5) of 136 nM. The IC50 (KGN) was 13.6 nM, the IC50 (TGBC1TKB) was 3.79 nM and the IC50 (ACN) was 15 nM. For the same molecule, the IC50 (NB14) was over 1200 nM, the IC50 (KNS-81-FD) was 113 nM and the IC50 (EW-16) was 11.9 nM. The IC50 (no-10) was 15.8 nM, the IC50 (NCI-H1581) was 297 nM and the IC50 (BT-474) was 293 nM. The IC50 (NCI-H226) was over 1200 nM, the IC50 (D-336MG) was 266 nM and the IC50 (P30-OHK) was over 1200 nM. For the same molecule, the IC50 (NCI-H1838) was over 1200 nM, the IC50 (RXF 393) was 94.6 nM and the IC50 (DB) was 501 nM. The IC50 (SJSA-1) was 41.9 nM, the IC50 (SNB-75) was 63.4 nM and the IC50 (MC116) was 26.8 nM.
